Test results taken from US20030133918A1, “Methods for ex vivo propagation of somatic stem cells” (priority 2001, published 2003).

Legend:
[1] = tested on: rat liver epithelial cell strains; experiment: Colony formation assay of rat liver epithelial cell strains in Xs-free or Xs-containing medium; format: cell-based; settings: for Colony formation efficiency Xs+/Xs− Ratio: 50 μM xanthosine vs Xs-free medium; for Colony formation efficiency, Xs+ (Mean % ± SD; n = 6): 50 μM xanthosine, 14 days, 200 cells per well
From the text: Three Xs-free (“Xs-F”) cell strains and 8 Xs-derived (“Xs-D”) cell strains were chosen for cell kinetics analysis. Despite the similarities in their derivation course, there is a remarkable difference in the growth properties of Xs-F and Xs-D cell strains (see Table 1). […] This is a highly significance difference (p=0.004). […] The estimated mean increase in colony formation efficiency for Xs-D strains in Xs-containing medium is 11-fold, ranging from a 10% (Xs-D9; not statistically significant) to a 40-fold increase (Xs-D13; p<0.0001). The growth of Xs-F strains was unaffected by Xs even at the higher concentration of 100 μM (data not shown). [table]

[2] = tested on: Xs-D8 cells; experiment: Daughter pair analysis (DPA), BrdU incorporation; format: cell-based, rat; settings: addition of Xs; n=58 pairs; 16% in absence of Xs
Protocol: The assay is called a “daughter pair analysis” (DPA). To perform the DPA, cells are plated in Xs-containing medium at microcolony density (approximately one cell per 40× microscope field). After allowing 4 to 5 hours for cell adherence, asymmetric cell kinetics are induced by changing to Xs-free medium. After about 16 hours to allow cell divisions to produce “daughter pairs”, the cells are labeled for 4 hours with the thymidine analogue bromodeoxyuridine (BrdU). The cells are then fixed and evaluated for BrdU incorporation by in situ immunofluorescence.
When grown in the absence of Xs, 84% of Xs-D8 BrdU(+) daughter pairs show a single BrdU(+) daughter (n=76 pairs; e.g., FIGS. 3C,F). The BrdU(+) daughter is the cycling stem cell daughter, whereas the BrdU(−) daughter corresponds to a non-cycling transit cell daughter that can undergo differentiation in peptide hydrogels (data not shown). Consistent with its ability to shift cells from asymmetric to exponential kinetics, addition of Xs increases the fraction of double-BrdU(+) Xs-D8 daughter pairs from 16% to 76% (n=58 pairs; e.g., FIGS. 3B,E). […] For 70 scored daughter pairs in Xs-free medium, the frequency of Xs-F1 symmetric pairs was 5 times the frequency of Xs-D8 symmetric pairs.

[3] = tested on: bone marrow cells; experiment: Non-adherent cell production in long-term bone marrow culture; format: cell-based, mice; settings: Xs 1 mM, medium with 25% horse serum
Protocol: The non-adherent cell production rate (CPR) is defined as the total number of non-adherent cells produced in a single long-term culture normalized to days of culture (mean=95 days; range=66 to 132) and input cell number (range=5×10^6 to 20×10^6 cells). To develop long-term bone marrow cultures, freshly isolated bone marrow cells from tibia and femurs of 7-12 week-old female C57BL/6J mice were grown in culture medium supplemented with 25% horse serum.

[4] = tested on: freshly harvested murine bone marrow cells; experiment: Bone marrow colony formation in soft agar (fresh bone marrow); format: cell-based
Protocol: The following numbers of freshly harvested murine bone marrow cells were plated in soft agar in replicates of 6 in 6-well plates: 1×10^5, 5×10^5, or 1×10^6. After 1-3 weeks, type I, II, and III colonies (see FIG. 2 for examples) were enumerated by phase microscopy.
Because of the difficulties anticipated in cloning Xs-dependent cells from heterogenous long-term bone marrow cultures, we decided to adopt a soft agar culture strategy. It is well known that hematopoietic progenitor cells will form colonies when grown in semi-solid medium (Dexter et al., 1984). […] In many bone marrow cell studies, conditions are selected to induce bone marrow cell differentiation. Methyl-cellulose or soft agar supplemented with lineage-promoting growth factors are widely used experimental systems (Dexter et al., 1984). For ideal SACK, we wished to minimize stimuli for differentiation. Therefore, we used agar developed in routine horse serum-supplemented long-term culture medium, without any additional growth factor source, as the gel medium for our studies. We followed procedures developed for detecting anchorage-independent growth of transformed tumor cells.
Given their associated HSC activity, LT-CFCs are predicted to divide with asymmetric cell kinetics. We evaluated whether Xs would increase the frequency of LT-CFC type I colonies in soft agar. Freshly prepared bone marrow cells were plated in soft agar developed in either control medium or medium containing 1 mM or 3 mM Xs.

[5] = tested on: LT-CFCs; experiment: Serial transfer of LT-CFC-derived type I colonies in soft agar; format: cell-based, murine
Protocol: Type I colonies were isolated from soft agar with either control medium or medium containing Xs (data for 1 mM and 3 mM Xs are combined). Colonies were dispersed and then plated in a single 6-well in soft agar developed with culture medium containing the respective concentration of Xs. After 1-3 weeks, the number and type of secondary colonies were scored by phase microscopy. Bars indicate the mean percent of positive wells for each secondary colony type. Data for the control condition are the means of two independent experiments; data for Xs condition are the means of four independent experiments. We next evaluated whether LT-CFCs which produced type I colonies could be propagated in soft agar. Pasteur pipettes were used to isolate type I colonies from soft agar developed in either control medium or medium containing Xs. Isolated colonies were dispersed and their cells replated in their entirety in a single well of a 6-well plate in soft agar developed with the respective Xs concentration.

[6] = tested on: p53-inducible model cells; settings: p53-inducible model cells (Sherley et al. 1995a, Liu et al. 1998a); cited from earlier work

## O=c1[nH]c(=O)c2ncn([C@@H]3O[C@H](CO)[C@@H](O)[C@H]3O)c2[nH]1 [Xs, xanthosine]
[1]; Xs-F strains, even at the higher concentration of 100 μM, data not shown
  Growth of Xs-F strains: unaffected
[1]; cell strain Xs-D4
  Colony formation efficiency Xs+/Xs− Ratio: 1.5
  Colony formation efficiency, Xs+ (Mean % ± SD; n = 6): 8.0 ± 1.1%
[1]; cell strain Xs-D6
  Colony formation efficiency Xs+/Xs− Ratio: 1.4
  Colony formation efficiency, Xs+ (Mean % ± SD; n = 6): 5.3 ± 1.8%
[1]; cell strain Xs-D7
  Colony formation efficiency Xs+/Xs− Ratio: ≧22
  Colony formation efficiency, Xs+ (Mean % ± SD; n = 6): 6.7 ± 2.2%
[1]; cell strain Xs-D8
  Colony formation efficiency Xs+/Xs− Ratio: 17
  Colony formation efficiency, Xs+ (Mean % ± SD; n = 6): 22 ± 3.6%
[1]; cell strain Xs-D9
  Colony formation efficiency Xs+/Xs− Ratio: 1.1
  Colony formation efficiency, Xs+ (Mean % ± SD; n = 6): 11 ± 2.6%
[1]; cell strain Xs-D13
  Colony formation efficiency Xs+/Xs− Ratio: 40
  Colony formation efficiency, Xs+ (Mean % ± SD; n = 6): 12 ± 2.7%
[1]; cell strain Xs-D14
  Colony formation efficiency Xs+/Xs− Ratio: 1.3
  Colony formation efficiency, Xs+ (Mean % ± SD; n = 6): 0.4 ± 0.67%
[1]; cell strain Xs-D15
  Colony formation efficiency Xs+/Xs− Ratio: 5.3
  Colony formation efficiency, Xs+ (Mean % ± SD; n = 6): 10 ± 1.6%
[1]; cell strain Xs-F1
  Colony formation efficiency Xs+/Xs− Ratio: 0.9
  Colony formation efficiency, Xs+ (Mean % ± SD; n = 6): 9.8 ± 2.2%
[1]; cell strain Xs-F2
  Colony formation efficiency Xs+/Xs− Ratio: 1.0
  Colony formation efficiency, Xs+ (Mean % ± SD; n = 6): 29 ± 3.7%
[1]; cell strain Xs-F3
  Colony formation efficiency Xs+/Xs− Ratio: 1.0
  Colony formation efficiency, Xs+ (Mean % ± SD; n = 6): 18 ± 3.7%
[1]; mean of 8 Xs-D strains, Xs-containing vs Xs-free medium
  Estimated mean increase in colony formation efficiency for Xs-D strains in Xs-containing medium: 11 fold
[1]; strain Xs-D9, not statistically significant
  Increase in colony formation efficiency in Xs-containing medium: 10%
[1]; strain Xs-D13, p<0.0001
  Increase in colony formation efficiency in Xs-containing medium: 40 fold
[2]
  Fraction of double-BrdU(+) Xs-D8 daughter pairs: 76%
[3]
  Increase in the rate of production of non-adherent, differentiated cells: 80%
[4]; 1 mM Xs, density of 1×10^5 bone marrow cells per 6-well
  Increase in the frequency of type I colonies: 1.5 fold
[4]; 1 mM Xs, inputs of 5×10^5 or 1×10^6 cells
  Mean fold increase in the frequency of type I colonies: 5.3 fold
[4]; Xs 1 mM and 3 mM, range 1.2 to 6.2, p<0.017
  Mean fold increase in type I colony formation: 2.9 fold
[5]; presence vs absence of Xs
  Occurrence of multiple secondary colonies, more common in the presence of Xs: 5 times
[5]; secondary colonies from type I colonies, 1 mM and 3 mM Xs combined
  Cases of multiple secondary colonies that occurred in Xs-containing medium: Eighty-three
[5]; secondary colonies in Xs-containing soft agar
  Type I colonies more frequent than type II and III colonies: 50%
[5]; type I colonies grown in Xs
  Efficiency of giving rise to type I secondary colonies versus control type I colonies: 4 fold
[6]
  Suppression of asymmetric cell kinetics: can suppress the asymmetric cell kinetics
